# Patent US5023275A, “S-substituted beta-thioacrylamide biocides and fungicides” (Rohm and Haas Company, priority 1990, dated 1991)
# Where two headings read alike, the source gives them in different places.
# Tests used:
# Escherichia coli (E.c) [1] = experiment: Alternate Minimum Inhibitory Concentration test, E.c (Table 7); type: cell-based; details: TSB, 72 hours, 30° C.
# Candida albicans (C.alb) = experiment: Alternate Minimum Inhibitory Concentration test, C.alb (Table 7); type: cell-based; details: TSB, 72 hours, 30° C.
# [2] = tested on: Pellicularia filamentosa (f. sp. sasiki); details: in vivo
# [3] = tested on: Pseudomonas fluorescens (Ps.fl); experiment: MIC, broth two-fold serial dilution test, Ps.fl (Table 6); type: cell-based; details: two-fold serial dilution in broth, 500 to 4 ppm
# Source text: (§1) A minimum inhibitory concentration (MIC) value is obtained using a broth, two-fold serial dilution test performed as follows: […] A volume of the stock solution is dispensed into culture media to give an initial starting test concentration of 500 ppm compound. When the test is ready to be done, each vessel in the dilution series, except the first vessel, contains an equal volume of compound free broth. The first vessel contains twice the volume of broth with the starting concentration of test compound. One half of the broth from the first vessel is transferred to the second vessel. After being mixed, one half the resulting volume is removed from the second vessel and transferred to the third vessel. […] Each vessel is then inoculated with a cell suspension of the appropriate test organism. Bacteria are grown in broth and fungi on agar […] for a time and at a temperature appropriate to the species being tested. At the end of the growth period, the broth is vortexed to disperse the cells. In the case of fungi, the spores are harvested by pipetting water onto the slant and dislodging the spores with a sterile loop. The cell/spore suspension is standardized by controlling incubation time, temperature, and the volume of the diluent. The suspension is then used to inoculate the vessels containing the broth compound. The vessels are then incubated at the appropriate temperature. […]
# [4] = tested on: Pseudomonas aerugenosa (Ps.ae); experiment: Alternate Minimum Inhibitory Concentration test, Ps.ae (Table 7); type: cell-based; details: TSB, 72 hours, 30° C.
# Aspergillus niger (A.n) [5] = experiment: Alternate Minimum Inhibitory Concentration test, A.n (Table 7); type: cell-based; details: TSB, 72 hours, 30° C.
# [6] = tested on: Staphylococcus aureus (S.a); experiment: MIC, broth two-fold serial dilution test, S.a (Table 6); type: cell-based; details: two-fold serial dilution in broth, 500 to 4 ppm
# Source text: as §1
# [7] = tested on: Pseudomonas fluorescens (Ps.fl); experiment: Alternate Minimum Inhibitory Concentration test, Ps.fl (Table 7); type: cell-based; details: TSB, 72 hours, 30° C.
# Protocol: From this solution, 100 μl was transferred to the first row of two microtiter plate columns. […] Inoculation was accomplished by diluting a 24 hr Ps fl culture, four mls per 36 mls of phosphate buffer solution. A Dynatech autoinoculator was used to transfer 1.5 μl of this cell suspension to the microtiter plates.
# [8] = tested on: Staphylococcus aureus (S.a); experiment: Alternate Minimum Inhibitory Concentration test, S.a (Table 7); type: cell-based; details: TSB, 72 hours, 30° C.
# [9] = tested on: Erysiphe graminis (f. sp. tritici); details: in vivo
# Pseudomonas fluorescens = experiment: Speed of Kill (SOK) Test, 4 hours (Table 6); type: cell-based; details: Ps. fluorescens in synthetic hard water, 30° C., read-out: SOK: concentration at which compound killed >99.999% of the cells
# Source text: The Speed of Kill (SOK) Test measures the loss of cell viability in an aqueous suspension of bacterial cells during a four hour period when these cells are contacted with a defined concentration of the test compound in synthetic hard water (SHW). A stock solution or dispersion of the test compound, typically at a concentration of 1%, is made in a 5:3:2 solvent solution of acetone, methanol, and water. The SHW is made by taking one liter of sterile deionized water and adding the following solutions to it:
# 1. 2 ml of a solution of 31.74 g of MgCl2 and 73.99 g of CaCl2 in 1000 ml. of sterile distilled water which has been heat sterilized.
# 2. 4 ml of a solution of 56.03 g of NaHCO3 in 1000 ml of water which has been filter sterilized.
# The combined solution is then filter sterilized to yield the SHW. A volume of the stock solution is dispensed into the SHW to give an initial test compound starting concentration of 500 ppm.
# When the test is ready to be run, each vessel in the dilution series, except the first vessel, contains an equal volume of the SHW mixture with the test compound. The first vessel contains twice the volume of SHW with the starting concentration of test compound. One half of the SHW from the first vessel is transferred to the second vessel. After being mixed, one half the resulting volume is removed from the second vessel and transferred to the third vessel. […]
# Piricularia oryzae = type: in vivo; details: rice, 7 to 8 days after inoculation
# Aspergillus niger (A.n) [10] = experiment: MIC, broth two-fold serial dilution test, A.n (Table 6); type: cell-based; details: two-fold serial dilution in broth, 500 to 4 ppm
# Source text: as §1
# [11] = tested on: Pseudomonas aerugenosa (Ps.ae); experiment: MIC, broth two-fold serial dilution test, Ps.ae (Table 6); type: cell-based; details: two-fold serial dilution in broth, 500 to 4 ppm
# Source text: as §1
# Phytophthora infestans = type: in vivo; details: tomato, 4 days after inoculation
# [12] = tested on: Aureobasidium pullulans (A.p); experiment: MIC, broth two-fold serial dilution test, A.p (Table 6); type: cell-based; details: two-fold serial dilution in broth, 500 to 4 ppm
# Source text: as §1
# [13] = tested on: Puccinia graminis (f. sp. tritici Race 15B-2); type: in vivo; details: wheat, two weeks
# [14] = tested on: Pseudoperonospora cubensis; details: in vivo
# [15] = tested on: Aureobasidium pullulans (A.p); experiment: Alternate Minimum Inhibitory Concentration test, A.p (Table 7); type: cell-based; details: TSB, 72 hours, 30° C.
# Escherichia coli (E.c) [16] = experiment: MIC, broth two-fold serial dilution test, E.c (Table 6); type: cell-based; details: two-fold serial dilution in broth, 500 to 4 ppm
# Source text: as §1
# [17] = tested on: Puccinia recondita (f. sp. tritici Races PKB and PLD); details: in vivo
Structure (SMILES),MIC (Escherichia coli (E.c) [1]),MIC (Candida albicans (C.alb)),% Control RSB [2],MIC [4],MIC (Aspergillus niger (A.n) [5]),MIC [7],MIC [8],% Control WPM [9],% Control RB (Piricularia oryzae; application rate 200 ppm),% Control TLB (Phytophthora infestans; application rate 300 ppm),% Control WSR ([13]; application rate 300 ppm),% Control CDM [14],MIC [15],% Control RB (Piricularia oryzae; application rate 100 ppm),% Control TLB (Phytophthora infestans; application rate 100 ppm),other results
"CC(=O)C(S/C(Cl)=C(/C)C(=O)Nc1ccc(Cl)cc1)C(C)=O [Example 1, N-(p-Chlorophenyl)-2-methyl-3-chloro-cis-3-thio-(1-acetylpropan-2-on-1-yl)acrylamide]",< 4 µg/mL,< 4 µg/mL,0%,8 µg/mL,4 to 8 µg/mL,4 to 16 µg/mL,< 4 µg/mL,0%,80%,90%,70%,100%,< 4 µg/mL,–,–,MIC [3]: < 4 µg/mL; MIC [6]: < 4 µg/mL; MBC (Pseudomonas fluorescens): 32 µg/mL; MIC (Aspergillus niger (A.n) [10]): < 4 µg/mL; MIC [11]: < 4 µg/mL; MIC [12]: < 4 µg/mL; MIC (Escherichia coli (E.c) [16]): < 4 µg/mL
"CC(=O)C(S/C=C\C(=O)NCc1ccccc1)C(C)=O [Example 2, N-benzyl-cis-3-thio-(1-acetylpropan-2-on-1-yl)acrylamide]",63 to 125 µg/mL,31 to 63 µg/mL,0%,500 µg/mL,125 to 500 µg/mL,> 500 µg/mL,31 µg/mL,0%,–,0%,40%,70%,31 µg/mL,–,–,% Control RB (Piricularia oryzae; application rate 300 ppm): 0%
"CC(=O)C(S/C=C\C(=O)NCCc1ccccc1)C(C)=O [Example 3, N-(beta-phenethyl)-cis-3-thio-(1-acetylpropan-2-on-1-yl)-acrylamide]",250 µg/mL,31 µg/mL,0%,> 500 µg/mL,63 to 500 µg/mL,> 500 µg/mL,63 µg/mL,0%,94%,20%,40%,90%,8 to 16 µg/mL,–,–,–
"CC(=O)C(S/C=C\C(=O)NCc1ccc(Cl)cc1)C(C)=O [Example 4, N-(p-chlorobenzyl)-cis-3-thio-(1-acetylpropan-2-on-1-yl)-acrylamide]",63 µg/mL,63 µg/mL,0%,> 500 µg/mL,31 to 500 µg/mL,> 500 µg/mL,31 µg/mL,0%,89%,15%,30%,95%,16 µg/mL,–,–,–
"CC(=O)C(S/C(Cl)=C(/C)C(=O)Nc1ccccc1)C(C)=O [Example 5, N-phenyl-2-methyl-3-chloro-cis-3-thio-(1-acetylpropan-2-on-1-yl)acrylamide]",< 4 µg/mL,16 µg/mL,–,16 to 31 µg/mL,< 4 µg/mL,16 µg/mL,8 µg/mL,0%,–,–,–,49%,16 µg/mL,50%,35%,MIC [3]: < 4 µg/mL; MIC [6]: < 4 µg/mL; MBC (Pseudomonas fluorescens): < 4 µg/mL; MIC (Aspergillus niger (A.n) [10]): < 4 µg/mL; MIC [11]: 8 µg/mL; MIC [12]: 32 µg/mL; % Control WSR ([13]; application rate 100 ppm): 50%; MIC (Escherichia coli (E.c) [16]): < 4 µg/mL
"CC(=O)C(S/C(Cl)=C\C(=O)Nc1ccc(Cl)cc1)C(C)=O [Example 6, N-(p-chlorophenyl)-3-chloro-cis-3-thio-(1-acetylpropan-2-on-1-yl)acrylamide]",–,–,0%,–,> 500 µg/mL,> 500 µg/mL,–,0%,–,–,–,85%,–,50%,0%,% Control WLR [17]: 50%
"CC(=O)C(S/C=C(/C)C(=O)Nc1ccc(Cl)cc1)C(C)=O [Example 7, N-(p-chlorophenyl)-2-methyl-cis-3-thio-(1-acetylpropan-2-on-1-yl)acrylamide]",63 to 125 µg/mL,16 µg/mL,0%,> 500 µg/mL,31 to 63 µg/mL,> 500 µg/mL,125 µg/mL,60%,–,–,–,0%,4 to 8 µg/mL,50%,0%,% Control WLR [17]: 50%
